Laboratory results as given in patent EP1598418A1, “STABILISED COMPOSITION FOR FLUORIMETRIC, COLORIMETRIC OR CHEMOLUMINESCENT ASSAYS, KITS CONTAINING SAME AND PRODUCTION METHOD THEREOF” (BIOTOOLS BIOTECHNOLOGICAL & MEDICAL LABORATORIES, S.A., priority 2003, dated 2004).

How the values were obtained:
Conditions in all cases: conserved at T 4 °C, vs fresh mixture
[1] = system: oligonucleotides chemically modified by including biotin and/or digoxygenin groups; test: Amplification with desiccated biotin/digoxygenin oligonucleotides and colorimetric ELISA plate assay (Example 7); type: biochemical, oncogenic HPV
Experimental: To do so, 4 oligonucleotides were designed that hybridised with the genome of region E6-E7 of oncogenic HPV species.
To do so, an ELISA microplate with a high-binding capacity to streptoavidin (Biospa) was activated following a standard fixing protocol. Then, after blocking the plate by incubation with gelatine, the amplified products of the stabilising mixtures 1, 2 and 3 described in Example 7.A were analysed by a colorimetry assay according to the following experimental process: • A.- Amplification products using an onligonucleotide marked with digoxygenin (mixture 1 in Example 7.A). The biotinated probe A11 was fixed to the plate and the amplified product was hybridised. […] The amplification product was fixed to the plate with the first biotinilate and then hybridised with the first A12 marked with digoxygenin.

Scorpion probes = test: Real-time amplification with desiccated, stabilised reaction mixture with Scorpion probes after storage (Example 4); type: biochemical, M. tuberculosis
[2] = system: nucleic acids immobilised in ELISA microplates; test: Amplification and colorimetric detection with stabilised nucleic acids immobilised in ELISA microplates (Example 10.1)
[3] = system: nucleic acids immobilised in modified glasses; test: Colorimetric assay of stabilised nucleic acids immobilised in modified glasses (Example 10.3); type: biochemical, HPV 16
Experimental: Approach 1. Stabilisation of supports with previously fixed nucleic acids. HPV specific probes were fixed to glass supports pre-treated with polylysiun, aldehyde, epoxy, superepoxy and silane. To do so, in each support slide 1 microlitre spots were applied of the solution of each oligonucleotide at a concentration of 20 µM in the conditions indicated for each glass format. The slides with the immobilised oligonucleotides were then coated with a thin layer of each of the stabilising mixtures and then desiccated in a vacuum oven at 25°C and 50 mbar pressure.
(§1) Approach 2. Fixation to the slides of the nucleic acids pre-mixed with the stabilising mixtures. A mixture was prepared of each of the probes with the suitable volumes of the stabilising mixtures described in Table 1. Then the mixtures of oligonucleotides were applied to the various slides with the fixing conditions indicated for each glass format.
To test the viability of each slide prepared, a colorimetric assay was performed with formation of precipitate products. To do so, the slides were washed for 5 minutes in PBS 1X at room temperature to eliminate the protective layer. Then the slides were incubated in the presence of an amplified and previously denatured HPV 16 product using the probes A11 and A12.

[4] = system: streptoavidin conjugated with HRP (Str-HRP) and anti-digoxygenin conjugated with alkaline phospatase (anti-DIG-AP); test: Colorimetric ELISA plate activity test of desiccated, stabilised conjugates (Example 8); type: biochemical, HPV 16
Experimental: In 0.2 ml amplification tubes were added 100 microlitres of a 1/250 dilution in a blocking solution of the conjugate Str-HRP (Biospa). In parallel, 0.2 ml phials were prepared in which 100 microlitres were added of a 1/250 dilution in a blocking solution of anti-DIG-AP (Sigma).
For the activity assay of the conjugate anti-DIG-AP an ELISA plate was used in which the dimples had been previously coated with streptoavidin. For the activity assay of conjugate Str-HRP a plate was used instead with dimples previously coated with anti-DIG antibodies. The amplified products were incubated in each plate to allow the immobilisation of the amplicons in the plate.

antidigoxygenin antibody = test: Colorimetry assay of stabilised protein immobilised in ELISA microplates (Example 10.2); type: biochemical, HPV
Experimental: To do so each dimple was incubated with 1µg of antidigoxygenin antibody (Roche).
The amplified product was incubated for 30 minutes in the dimples with the antibody immobilised. The amplified products immobilised in the plate by the union of the digoxygenin group of the amplicons and the immobilised anti-digoxygenin group were analysed by a colorimetric assay. […] The colorimetric reaction was finally analysed by measuring absorption at 415 nm.

[5] = system: Molecular Beacon (MB) probe; test: Real-time amplification with desiccated, stabilised reaction mixture with Molecular Beacon probe after storage (Example 3); type: biochemical, P. falciparum
[6] = system: probes marked with biotin or digoxygenin groups; test: Synthesis of digoxygenin-marked probes with desiccated mixtures and molecular hybridisation test (Example 9)
FRET probes = test: Real-time amplification with desiccated, stabilised reaction mixture with FRET probes after storage (Example 1); type: biochemical, P. falciparum
TaqMan probes = test: Real-time amplification with desiccated, stabilised reaction mixture with TaqMan probes after storage (Example 2); type: biochemical, P. falciparum
[7] = system: DTCS Quick Start Master Mix; test: Sequencing reaction with desiccated, stabilised mixture with fluorescent terminators after storage (Example 6); type: biochemical, human papillomavirus
Experimental: To test the possibility of gelling reaction mixtures for sequencing nucleic acids the CEQ 200 Dye Terminator Cycle Sequencing (DTCS) Quick Start Kit (Beckman Coulter) was employed, which uses a PCR sequencing system in a single tube by incorporating four different fluorescent terminators. The sequencing reactions were later analysed in a CEQ 2000 XL DNA Analysis System (Beckman Coulter) capillary electrophoresis automatic sequencing system.
Reaction mixtures were prepared containing 4 microlitres of DTCS Quick Start Master Mix, 1 microlitre of universal primer M13-17 and the suitable volume of each stabilising mixture shown in Table 1.
In parallel, in order to check the evolution of the activity of the desiccated and stabilised tubes, the same plasmid was sequenced using a fresh sequencing mixture in standard conditions. Finally, the sequencing reactions were analysed in the CEQ 200XL system following the supplier's instructions.

[8] = system: reaction mixture with SYBR Green; test: Real-time amplification with desiccated, stabilised reaction mixture with SYBR Green after storage (Example 5); type: biochemical, oncogenic papillomaviruses
Experimental: To test the efficiency of intercalated fluorophores such as SYBR Green included in desiccated and stabilised reaction mixtures, reaction mixtures were prepared for amplifying a 250 bp fragment corresponding to region E6-E7 of oncogenic papillomaviruses, using the same reagents as described in Example 1. In this case the unit "DNA Engine OPTICON™ 2 System" (MJ Research) was used. […] Also to each phial was added […] of SYBR Green 1 (Molecular probes).
Various tubes were prepared as described above, adding to each the suitable volume of each stabilising mixture shown in Table 1.
In parallel, in order to check the evolution of the activity of the desiccated tubes, DNA samples were amplified using a fresh mixture in the same amplification conditions.
The result of the amplification reaction was analysed in every case by inspecting the fluorescence curve and determining the crossing point, following the instructions of the equipment software, for each reaction tube both fresh and desiccated and stabilised. […] The samples of patients infected with oncogenic HPV gave positive results in every case, while patients infected with non-oncogenic HPV, or not infected with HPV, gave negative results in every case.

[9] = system: Anti-digoxygenin antibodies; test: Colorimetric assay of stabilised proteins immobilised in modified glasses (Example 10.4); type: biochemical, P. falciparum
Experimental: To test the possibility of stabilising proteins that have been previously immobilised in pre-treated glass supports, the usual format of microarray systems, two different alternatives were tested as in the previous experiment.
Approach 1. Stabilisation of supports with previously fixed protein. Anti-digoxygenin antibodies were fixed to glass supports pre-treated with aldehyde. To do so, in each support slide 1 microlitre spots were applied of the solution of each protein at a concentration of 30 ng/µl. The slides with the immobilised protein were then coated with a thin layer of each of the stabilising mixtures and then desiccated in a vacuum oven at 25°C and 50 mbar pressure.
as §1, with “protein” for “nucleic acids”, “protein” for “oligonucleotides”
To test the viability of each slide prepared, a colorimetric assay was performed with formation of precipitate products. To do so, the slides were washed for 5 minutes in PBS 1X at room temperature to eliminate the protective layer.

## OC[C@H]1O[C@@](CO)(O[C@H]2O[C@H](CO)[C@@H](O)[C@H](O)[C@H]2O)[C@@H](O[C@H]2O[C@H](CO)[C@@H](O)[C@H](O)[C@H]2O)[C@@H]1O [Melezitose]
[1]
  activity of stabilising mixtures: + (+, weak positive, under 50% of the activity of the fresh mixture)
Scorpion probes
  activity of stabilising mixtures: + (+, weak positive, under 50% of the activity of the fresh mixture)
[2]
  activity of stabilising mixtures: + (+, weak positive, under 50% of the activity of the fresh mixture)
[3]
  activity of stabilising mixtures: + (+, weak positive, under 50% of the activity of the fresh mixture)
[4]
  activity of stabilising mixtures: + (+, weak positive, under 50% of the activity of the fresh mixture)
Antidigoxygenin antibody
  activity of stabilising mixtures: + (+, weak positive, under 50% of the activity of the fresh mixture)
[5]
  activity of stabilising mixtures: + (+, weak positive, under 50% of the activity of the fresh mixture)
[6]
  activity of stabilising mixtures: + (+, weak positive, under 50% of the activity of the fresh mixture)
FRET probes
  activity of stabilising mixtures: + (+, weak positive, under 50% of the activity of the fresh mixture)
TaqMan probes
  activity of stabilising mixtures: + (+, weak positive, under 50% of the activity of the fresh mixture)
[7]
  activity of stabilising mixtures: + (+, weak positive, under 50% of the activity of the fresh mixture)
[8]
  activity of stabilising mixtures: + (+, weak positive, under 50% of the activity of the fresh mixture)
[9]
  activity of stabilising mixtures: + (+, weak positive, under 50% of the activity of the fresh mixture)

## OC[C@H]1O[C@H](OC[C@H]2O[C@H](O[C@]3(CO)O[C@H](CO)[C@@H](O)[C@@H]3O)[C@H](O)[C@@H](O)[C@@H]2O)[C@H](O)[C@@H](O)[C@H]1O [Rafinose]
[1]
  activity of stabilising mixtures: + (+, weak positive, under 50% of the activity of the fresh mixture)
Scorpion probes
  activity of stabilising mixtures: + (+, weak positive, under 50% of the activity of the fresh mixture)
[2]
  activity of stabilising mixtures: + (+, weak positive, under 50% of the activity of the fresh mixture)
[3]
  activity of stabilising mixtures: + (+, weak positive, under 50% of the activity of the fresh mixture)
[4]
  activity of stabilising mixtures: + (+, weak positive, under 50% of the activity of the fresh mixture)
Antidigoxygenin antibody
  activity of stabilising mixtures: + (+, weak positive, under 50% of the activity of the fresh mixture)
[5]
  activity of stabilising mixtures: + (+, weak positive, under 50% of the activity of the fresh mixture)
[6]
  activity of stabilising mixtures: + (+, weak positive, under 50% of the activity of the fresh mixture)
FRET probes
  activity of stabilising mixtures: + (+, weak positive, under 50% of the activity of the fresh mixture)
TaqMan probes
  activity of stabilising mixtures: + (+, weak positive, under 50% of the activity of the fresh mixture)
[7]
  activity of stabilising mixtures: + (+, weak positive, under 50% of the activity of the fresh mixture)
[8]
  activity of stabilising mixtures: + (+, weak positive, under 50% of the activity of the fresh mixture)
[9]
  activity of stabilising mixtures: + (+, weak positive, under 50% of the activity of the fresh mixture)

## NCCCC[C@H](N)C(=O)O [Lysine]
[1]
  activity of stabilising mixtures: + (+, weak positive, under 50% of the activity of the fresh mixture)
Scorpion probes
  activity of stabilising mixtures: + (+, weak positive, under 50% of the activity of the fresh mixture)
[2]
  activity of stabilising mixtures: + (+, weak positive, under 50% of the activity of the fresh mixture)
[3]
  activity of stabilising mixtures: + (+, weak positive, under 50% of the activity of the fresh mixture)
[4]
  activity of stabilising mixtures: + (+, weak positive, under 50% of the activity of the fresh mixture)
Antidigoxygenin antibody
  activity of stabilising mixtures: + (+, weak positive, under 50% of the activity of the fresh mixture)
[5]
  activity of stabilising mixtures: + (+, weak positive, under 50% of the activity of the fresh mixture)
[6]
  activity of stabilising mixtures: + (+, weak positive, under 50% of the activity of the fresh mixture)
FRET probes
  activity of stabilising mixtures: + (+, weak positive, under 50% of the activity of the fresh mixture)
TaqMan probes
  activity of stabilising mixtures: + (+, weak positive, under 50% of the activity of the fresh mixture)
[7]
  activity of stabilising mixtures: + (+, weak positive, under 50% of the activity of the fresh mixture)
[8]
  activity of stabilising mixtures: + (+, weak positive, under 50% of the activity of the fresh mixture)
[9]
  activity of stabilising mixtures: + (+, weak positive, under 50% of the activity of the fresh mixture)

## OC[C@H]1O[C@@](CO)(O[C@H]2O[C@H](CO)[C@@H](O)[C@H](O)[C@H]2O)[C@@H](O)[C@@H]1O [Sucrose]
[1]
  activity of stabilising mixtures: + (+, weak positive, under 50% of the activity of the fresh mixture)
Scorpion probes
  activity of stabilising mixtures: + (+, weak positive, under 50% of the activity of the fresh mixture)
[2]
  activity of stabilising mixtures: + (+, weak positive, under 50% of the activity of the fresh mixture)
[3]
  activity of stabilising mixtures: + (+, weak positive, under 50% of the activity of the fresh mixture)
[4]
  activity of stabilising mixtures: + (+, weak positive, under 50% of the activity of the fresh mixture)
Antidigoxygenin antibody
  activity of stabilising mixtures: + (+, weak positive, under 50% of the activity of the fresh mixture)
[5]
  activity of stabilising mixtures: + (+, weak positive, under 50% of the activity of the fresh mixture)
[6]
  activity of stabilising mixtures: + (+, weak positive, under 50% of the activity of the fresh mixture)
FRET probes
  activity of stabilising mixtures: + (+, weak positive, under 50% of the activity of the fresh mixture)
TaqMan probes
  activity of stabilising mixtures: + (+, weak positive, under 50% of the activity of the fresh mixture)
[7]
  activity of stabilising mixtures: + (+, weak positive, under 50% of the activity of the fresh mixture)
[8]
  activity of stabilising mixtures: + (+, weak positive, under 50% of the activity of the fresh mixture)
[9]
  activity of stabilising mixtures: + (+, weak positive, under 50% of the activity of the fresh mixture)
